The text below walks through data of ChEMBL document CHEMBL2346622, “Novel tacrine-related drugs as potential candidates for the treatment of Alzheimer's disease” (Bioorg Med Chem Lett, 2013).

Assay [1] concerns the target T1, Acetylcholinesterase (Rattus norvegicus) (UniProt P37136).
T1 sequence (whole entry): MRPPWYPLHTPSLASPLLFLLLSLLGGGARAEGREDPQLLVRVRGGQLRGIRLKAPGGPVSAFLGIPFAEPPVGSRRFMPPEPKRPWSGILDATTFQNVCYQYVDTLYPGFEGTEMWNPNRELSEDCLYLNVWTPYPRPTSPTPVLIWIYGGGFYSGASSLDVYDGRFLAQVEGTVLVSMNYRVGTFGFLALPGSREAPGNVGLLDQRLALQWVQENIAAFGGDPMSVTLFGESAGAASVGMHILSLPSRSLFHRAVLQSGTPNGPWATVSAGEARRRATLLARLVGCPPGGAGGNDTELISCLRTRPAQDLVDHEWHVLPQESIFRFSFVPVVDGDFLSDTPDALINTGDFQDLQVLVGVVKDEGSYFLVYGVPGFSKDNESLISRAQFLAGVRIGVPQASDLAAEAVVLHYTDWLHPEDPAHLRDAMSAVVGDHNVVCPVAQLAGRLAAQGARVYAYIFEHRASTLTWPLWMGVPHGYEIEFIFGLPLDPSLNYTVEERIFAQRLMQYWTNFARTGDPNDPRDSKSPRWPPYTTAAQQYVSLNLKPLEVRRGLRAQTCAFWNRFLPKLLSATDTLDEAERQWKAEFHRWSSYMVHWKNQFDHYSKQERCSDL
As to the kind of experiment: (§1) Inhibition of rat brain acetylcholinesterase.

The target in another assay is T2, Acetylcholinesterase (Rattus norvegicus, UniProt P37136).
T2 sequence (P37136 whole entry): T1 sequence (whole entry)
The assay is described as §1.

A word on the IC50: it is the concentration at which inhibition is half-maximal. A higher IC50 goes with lower potency.

In the case of `c1ccc2c(NCCCCCCCN3CCCCC3)c3c(nc2c1)CCCC3`, the Imax in assay [1] is 95%. The same molecule had an IC50 at Acetylcholinesterase of 20.4 nM.
